Reference: patent US20240383874A1, “BENZENE RING DERIVATIVE, AND COMPOSITION AND PHARMACEUTICAL USE THEREOF” (Xizang Haisco Pharmaceutical Co., Ltd., priority 2020, published 2024)
Counter-ions that a name gives are not always drawn.

System: 22RV1 cells
Assay: Experiment 2 on inhibiting 22RV1 cell proliferation (7 days, CellTiter-Glo)
Format: cell-based
Details: Homo sapiens, 22Rv1, 168 h, 1% css-FBS phenol red-free medium, incubated with compound 7 days, read-out: IC50 values on proliferation inhibition of 22RV1 cells
Description: Prostate cancer cells 22RV1 were purchased from ATCC, the cell medium was RPMI 1640+10% FBS, and the cells were cultured in an incubator at 37° C. under 5% CO2. On day 1, the cells in an exponential phase were collected. With a 1% css-FBS phenol red-free medium, the cell suspension was adjusted to a corresponding concentration, plated at 2000 cells/well and incubated overnight. On day 2, compounds at different concentrations were added, and the plate was placed in the incubator and incubated for further 7 days. After the incubation was completed, according to operation instructions for a CellTiter-Glo kit (Promega, G7573), 50 μL of CTG solution, which was already pre-melted and equilibrated to room temperature, was added to each well, and the mixtures were uniformly mixed for 2 min using a microplate shaker. The plate was placed at room temperature for 10 min, and then fluorescence signal values were measured using a microplate reader (PHERAstar FSX). The results were processed according to formula (2), the survival rate of the compound at different concentrations was calculated, and the IC50 value of the compound with a survival rate of 50% was calculated using origin9.2 software with DoseResp function, wherein RLU compound was the readout of the treated group, and RLU control was the average value of the DMSO vehicle control group.

Row | Compound | IC50 [nM]
1 | Cn1c(=O)n(C2CCC(=O)NC2=O)c2cccc(CN3CC(N4CCC(N5CCC6(CCN(c7nccc(COc8ccc(C(C)(C)c9cc(Cl)c(OCCCl)c(C#N)c9)cc8)n7)CC6)CC5)CC4)C3)c21 (stereo not shown) [Compound 31 trifluoroacetate, 3-chloro-2-(2-chloroethoxy)-5-(2-(4-((2-(9-(1-(1-((1-(2,6-dioxopiperidin-3-yl)-3-methyl-2-oxo-2,3-dihydro-1H-benzo[d]imidazol-4-yl)methyl)azetidin-3-yl)piperidin-4-yl)-3,9-diazaspiro[5.5]undecan-3-yl)pyrimidin-4-yl)methoxy)phenyl)propan-2-yl)benzonitrile] | 401
2 | CC(C)(c1ccc(OCc2ccnc(N3CCC(C4CCN(CC5CCN(c6ccc7c(c6)C(=O)N(C6CCC(=O)NC6=O)C7=O)CC5)CC4)CC3)n2)cc1)c1cc(Cl)cc(C#N)c1 (stereo not shown) [Compound 38 trifluoroacetate, 3-chloro-5-(2-(4-((2-(1′-((1-(2-(2,6-dioxopiperidin-3-yl)-1,3-dioxoisoindolin-5-yl)piperidin-4-yl)methyl)-[4,4′-bipiperidin]-1-yl)pyrimidin-4-yl)methoxy)phenyl)propan-2-yl)benzonitrile] | 883
3 | CC(C)(c1ccc(OCc2ccnc(N3CCC(CN4CCN(c5cccc6c5C(=O)N(C5CCC(=O)NC5=O)C6=O)CC4)CC3)n2)cc1)c1cc(Cl)cc(C#N)c1 (stereo not shown) [Compound 39 trifluoroacetate, 3-chloro-5-(2-(4-((2-(4-((4-(2-(2,6-dioxopiperidin-3-yl)-1,3-dioxoisoindolin-4-yl)piperazin-1-yl)methyl)piperidin-1-yl)pyrimidin-4-yl)methoxy)phenyl)propan-2-yl)benzonitrile] | 936
4 | CC(C)(c1ccc(OCc2ccnc(N3CCC(N4CCC(CN5CCN(c6cccc7c6C(=O)N(C6CCC(=O)NC6=O)C7=O)CC5)CC4)CC3)n2)cc1)c1cc(Cl)cc(C#N)c1 (stereo not shown) [Compound 40 trifluoroacetate, 3-chloro-5-(2-(4-((2-(4-((4-(2-(2,6-dioxopiperidin-3-yl)-1,3-dioxoisoindolin-4-yl)piperazin-1-yl)methyl)-[1,4′-bipiperidin]-1′-yl)pyrimidin-4-yl)methoxy)phenyl)propan-2-yl)benzonitrile] | 764
5 | CC(C)(c1ccc(OCc2ccnc(N3CCC(CN4CCN(c5ccc6c(c5)C(=O)N(C5CCC(=O)NC5=O)C6=O)CC4)CC3)n2)cc1)c1cc(Cl)cc(C#N)c1 (stereo not shown) [Compound 41 trifluoroacetate, 3-chloro-5-(2-(4-((2-(4-((4-(2-(2,6-dioxopiperidin-3-yl)-1,3-dioxoisoindolin-5-yl)piperazin-1-yl)methyl)piperidin-1-yl)pyrimidin-4-yl)methoxy)phenyl)propan-2-yl)benzonitrile] | 633
6 | CC(C)(c1ccc(OCc2ccnc(N3CCC(N4CCC(CN5CCN(c6ccc7c(c6)C(=O)N(C6CCC(=O)NC6=O)C7=O)CC5)CC4)CC3)n2)cc1)c1cc(Cl)cc(C#N)c1 (stereo not shown) [Compound 42 trifluoroacetate, 3-chloro-5-(2-(4-((2-(4-((4-(2-(2,6-dioxopiperidin-3-yl)-1,3-dioxoisoindolin-5-yl)piperazin-1-yl)methyl)-[1,4′-bipiperidin]-1′-yl)pyrimidin-4-yl)methoxy)phenyl)propan-2-yl)benzonitrile] | 453
7 | Cc1ncsc1-c1ccc([C@H](C)NC(=O)[C@@H]2C[C@@H](O)CN2C(=O)[C@@H](NC(=O)CN2CCC(N3CCC(CN4CCN(c5nccc(COc6ccc(C(C)(C)c7cc(Cl)cc(C#N)c7)cc6)n5)CC4)CC3)CC2)C(C)(C)C)cc1 [Compound 43 trifluoroacetate, (2S,4R)-1-((S)-2-(2-(4-((4-(4-((4-(2-(3-chloro-5-cyanophenyl)propan-2-yl)phenoxy)methyl)pyrimidin-2-yl)piperazin-1-yl)methyl)-[1,4′-bipiperidin]-1′-yl)acetamido)-3,3-dimethylbutanoyl)-4-hydroxy-N-((S)-1-(4-(4-methylthiazol-5-yl)phenyl)ethyl)pyrrolidine-2-carboxamide] | 94
8 | CC(C)(c1ccc(OCc2ccnc(N3CCN(C4CCN(C5CCC6(CC5)CN(c5ccc7c(c5)C(=O)N(C5CCC(=O)NC5=O)C7=O)C6)CC4)CC3)n2)cc1)c1cc(Cl)cc(C#N)c1 (stereo not shown) [Compound 46 trifluoroacetate, 3-chloro-5-(2-(4-((2-(4-(1-(2-(2-(2,6-dioxopiperidin-3-yl)-1,3-dioxoisoindolin-5-yl)-2-azaspiro[3.5]nonan-7-yl)piperidin-4-yl)piperazin-1-yl)pyrimidin-4-yl)methoxy)phenyl)propan-2-yl)benzonitrile] | 461
9 | CC(C)(c1ccc(OCc2ccnc(N3CC(N4CCC(CN5CCN(c6ccc7c(c6)C(=O)N(C6CCC(=O)NC6=O)C7=O)CC5)CC4)C3)n2)cc1)c1cc(Cl)cc(C#N)c1 (stereo not shown) [Compound 47 trifluoroacetate, 3-chloro-5-(2-(4-((2-(3-(4-((4-(2-(2,6-dioxopiperidin-3-yl)-1,3-dioxoisoindolin-5-yl)piperazin-1-yl)methyl)piperidin-1-yl)azetidin-1-yl)pyrimidin-4-yl)methoxy)phenyl)propan-2-yl)benzonitrile] | 724
10 | CC(C)(c1ccc(OCc2ccnc(N3CC(N4CCC(CN5CCN(c6cccc7c6C(=O)N(C6CCC(=O)NC6=O)C7=O)CC5)CC4)C3)n2)cc1)c1cc(Cl)cc(C#N)c1 (stereo not shown) [Compound 48 trifluoroacetate, 3-chloro-5-(2-(4-((2-(3-(4-((4-(2-(2,6-dioxopiperidin-3-yl)-1,3-dioxoisoindolin-4-yl)piperazin-1-yl)methyl)piperidin-1-yl)azetidin-1-yl)pyrimidin-4-yl)methoxy)phenyl)propan-2-yl)benzonitrile] | 608
11 | CC(C)(c1ccc(OCc2ccnc(N3CCN(C4CCN(CC5CCN(c6ccc7c(c6)C(=O)N(C6CCC(=O)NC6=O)C7=O)CC5)CC4)CC3)n2)cc1)c1cc(Cl)cc(C#N)c1 (stereo not shown) [Compound 49 trifluoroacetate, 3-chloro-5-(2-(4-((2-(4-(1-((1-(2-(2,6-dioxopiperidin-3-yl)-1,3-dioxoisoindolin-5-yl)piperidin-4-yl)methyl)piperidin-4-yl)piperazin-1-yl)pyrimidin-4-yl)methoxy)phenyl)propan-2-yl)benzonitrile] | 494
12 | Cc1ncsc1-c1ccc([C@H](C)NC(=O)[C@@H]2C[C@@H](O)CN2C(=O)[C@@H](NC(=O)CN2CCC(CN3CCC(N4CCN(c5nccc(COc6ccc(C(C)(C)c7cc(Cl)cc(C#N)c7)cc6)n5)CC4)CC3)CC2)C(C)(C)C)cc1 [Compound 50 trifluoroacetate, (2S,4R)-1-((S)-2-(2-(4-((4-(4-(4-((4-(2-(3-chloro-5-cyanophenyl)propan-2-yl)phenoxy)methyl)pyrimidin-2-yl)piperazin-1-yl)piperidin-1-yl)methyl)piperidin-1-yl)acetamido)-3,3-dimethylbutanoyl)-4-hydroxy-N-((S)-1-(4-(4-methylthiazol-5-yl)phenyl)ethyl)pyrrolidine-2-carboxamide] | 398
13 | Cc1ncsc1-c1ccc([C@H](C)NC(=O)[C@@H]2C[C@@H](O)CN2C(=O)[C@@H](NC(=O)CN2CCC(CN3CCN(c4nccc(COc5ccc(C(C)(C)c6cc(Cl)cc(C#N)c6)cc5)n4)CC3)CC2)C(C)(C)C)cc1 [Compound 51 trifluoroacetate, (2S,4R)-1-((S)-2-(2-(4-((4-(4-((4-(2-(3-chloro-5-cyanophenyl)propan-2-yl)phenoxy)methyl)pyrimidin-2-yl)piperazin-1-yl)methyl)piperidin-1-yl)acetamido)-3,3-dimethylbutanoyl)-4-hydroxy-N-((S)-1-(4-(4-methylthiazol-5-yl)phenyl)ethyl)pyrrolidine-2-carboxamide] | 825
14 | CC(C)(c1ccc(OCc2ccnc(N3CCN(C4CN(C5CCCN(c6ccc7c(c6)C(=O)N(C6CCC(=O)NC6=O)C7=O)C5)C4)CC3)n2)cc1)c1cc(Cl)cc(C#N)c1 (stereo not shown) [Compound 52 trifluoroacetate, 3-chloro-5-(2-(4-((2-(4-(1-(1-(2-(2,6-dioxopiperidin-3-yl)-1,3-dioxoisoindolin-5-yl)piperidin-3-yl)azetidin-3-yl)piperazin-1-yl)pyrimidin-4-yl)methoxy)phenyl)propan-2-yl)benzonitrile] | 956
15 | CC(C)(c1ccc(OCc2ccnc(N3CCN(C4CN(C5CC6(CCN(c7ccc8c(c7)C(=O)N(C7CCC(=O)NC7=O)C8=O)CC6)C5)C4)CC3)n2)cc1)c1cc(Cl)cc(C#N)c1 (stereo not shown) [Compound 53 trifluoroacetate, 3-chloro-5-(2-(4-((2-(4-(1-(7-(2-(2,6-dioxopiperidin-3-yl)-1,3-dioxoisoindolin-5-yl)-7-azaspiro[3.5]nonan-2-yl)azetidin-3-yl)piperazin-1-yl)pyrimidin-4-yl)methoxy)phenyl)propan-2-yl)benzonitrile] | 623
16 | CC(C)(c1ccc(OCc2ccnc(N3CCN(C4CN(C5CCN(c6ccc7c(c6)C(=O)N(C6CCC(=O)NC6=O)C7=O)C5)C4)CC3)n2)cc1)c1cc(Cl)cc(C#N)c1 (stereo not shown) [Compound 55 trifluoroacetate, 3-chloro-5-(2-(4-((2-(4-(1-(1-(2-(2,6-dioxopiperidin-3-yl)-1,3-dioxoisoindolin-5-yl)pyrrolidin-3-yl)azetidin-3-yl)piperazin-1-yl)pyrimidin-4-yl)methoxy)phenyl)propan-2-yl)benzonitrile] | 519
